Measurements taken from patent publication US8435586B2, “Use of alkoxylated flavones to intensify the sensory impression of alcohol” (Symrise AG, priority 2007, dated 2013).

System: expert panel
Assay: Tasting of ethanol and HMF-containing mixtures by an expert panel (5% sucrose solution)
Type: in vivo, human
From the text: The test matrix used was a 5% sucrose solution having alcohol contents of 4 and 10% by volume respectively. Added to each of the two sucrose solutions were • a) nothing, • b) 2 ppm of HMF87 from Example 1, • c) 2 ppm of HMF99 from Example 1, • d) 5 ppm of HMF87 from Example 1 and • e) 5 ppm of HMF99 from Example 1.
All of these solutions were tasted by an expert panel consisting of five experts in each case.

Structure (SMILES): COc1ccc(-c2oc3c(OC)c(OC)c(OC)c(OC)c3c(=O)c2OC)cc1OC [HMF, 3,3′,4′,5,6,7,8-heptamethoxyflavone]
- intensification of the alcohol impression compared with the samples without HMF (2 or 5 ppm of HMF87 or HMF99, 4 and 10% by volume alcohol, five experts): highly significant intensification of the alcohol impression

Structure (SMILES): COc1ccc(-c2oc3c(OC)c(OC)c(OC)c(OC)c3c(=O)c2OC)cc1OC [HMF99, 3,3′,4′,5,6,7,8-heptamethoxyflavone]
- difference between HMF87 and HMF99 in intensification of the alcohol impression (2 and 5 ppm, 4 and 10% by volume alcohol): no significant difference
